Laboratory results published in patent US7041687B2, “Indazole compounds useful as protein kinase inhibitors” (Vertex Pharmaceuticals Incorporated, priority 2002, dated 2006).

Tests used:
Assay type in all cases: biochemical
PDK-1 = target: T1, PDK-1 (Homo sapiens, UniProt O15530); test: PDK-1 inhibition assay (radioactive-phosphate incorporation); conditions: 40 μM ATP, 65 μM PDKtide, 25 nM PDK-1, 30° C.
T1 sequence (O15530 1-556): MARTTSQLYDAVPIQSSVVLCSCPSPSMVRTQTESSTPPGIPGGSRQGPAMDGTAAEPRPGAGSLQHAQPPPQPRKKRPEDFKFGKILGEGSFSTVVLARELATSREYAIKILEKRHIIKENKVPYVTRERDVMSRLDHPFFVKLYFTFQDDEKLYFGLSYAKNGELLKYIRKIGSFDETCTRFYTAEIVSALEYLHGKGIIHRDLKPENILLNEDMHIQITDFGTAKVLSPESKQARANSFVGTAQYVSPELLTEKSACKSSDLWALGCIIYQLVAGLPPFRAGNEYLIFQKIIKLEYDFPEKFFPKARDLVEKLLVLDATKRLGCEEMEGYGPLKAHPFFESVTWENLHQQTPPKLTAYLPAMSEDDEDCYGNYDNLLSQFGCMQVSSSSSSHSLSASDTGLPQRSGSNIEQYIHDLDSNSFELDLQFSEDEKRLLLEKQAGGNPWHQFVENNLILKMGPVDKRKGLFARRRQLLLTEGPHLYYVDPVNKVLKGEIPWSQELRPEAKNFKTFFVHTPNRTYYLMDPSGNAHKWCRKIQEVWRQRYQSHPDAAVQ

PKA = PKA (Homo sapiens, UniProt P17612); test: PKA inhibition assay (standard coupled enzyme assay); conditions: 50 μM ATP, 80 μM Kemptide, 18 nM PKA, 30° C.
Method: Compounds were screened for their ability to inhibit PKA using a standard coupled enzyme assay (Fox et al., Protein Sci., (1998) 7, 2249). Assays were carried out in a mixture of 100 mM HEPES 7.5, 10 mM MgCl2, 25 mM NaCl, 1 mM DTT and 3% DMSO. Final substrate concentrations in the assay were 50 μM ATP (Sigma Chemicals) and 80 μM peptide (Kemptide, American Peptide, Sunnyvale, Calif.). Assays were carried out at 30° C. and 18 nM PKA. Final concentrations of the components of the coupled enzyme system were 2.5 mM phosphoenolpyruvate, 300 μM NADH, 30 μg/ml pyruvate kinase and 10 μg/ml lactate dehydrogenase.
An assay stock buffer solution was prepared containing all of the reagents listed above, with the exception of ATP, and the test compound of interest. 55 μl of the stock solution was placed in a 96 well plate followed by addition of 2 μl of DMSO stock containing serial dilutions of the test compound (typically starting from a final concentration of 5 μM). The plate was preincubated for 10 minutes at 30° C. and the reaction initiated by addition of 5 μl of ATP (final concentration 50 μM). Initial reaction rates were determined with a Molecular Devices SpectraMax Plus plate reader over a 15 minute time course. IC50 and Ki data were calculated from non-linear regression analysis using the Prism software package (GraphPad Prism version 3.0a for Macintosh, GraphPad Software, San Diego Calif., USA).

AKT-3 = AKT-3 (Homo sapiens, UniProt Q9Y243); test: AKT-3 inhibition assay (standard coupled enzyme assay); conditions: 170 μM ATP, 200 μM peptide, 45 nM AKT, 30° C.
AKT-3, sequence (Q9Y243 whole entry): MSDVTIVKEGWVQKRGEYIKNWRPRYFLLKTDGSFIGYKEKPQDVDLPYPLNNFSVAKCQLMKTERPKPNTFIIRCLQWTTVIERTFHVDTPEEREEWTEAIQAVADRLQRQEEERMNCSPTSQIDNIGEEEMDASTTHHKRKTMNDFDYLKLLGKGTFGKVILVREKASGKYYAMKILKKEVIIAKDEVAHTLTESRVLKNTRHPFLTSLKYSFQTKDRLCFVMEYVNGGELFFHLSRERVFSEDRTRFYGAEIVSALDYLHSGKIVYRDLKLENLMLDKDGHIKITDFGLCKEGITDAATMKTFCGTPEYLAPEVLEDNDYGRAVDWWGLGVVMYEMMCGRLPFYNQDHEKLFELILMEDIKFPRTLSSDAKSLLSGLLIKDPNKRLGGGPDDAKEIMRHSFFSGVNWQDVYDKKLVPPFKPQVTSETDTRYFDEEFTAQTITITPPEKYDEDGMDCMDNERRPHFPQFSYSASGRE
Method: Assays were carried out in a mixture of 100 mM HEPES 7.5, 10 mM MgCl2, 25 mM NaCl, 1 mM DTT and 3% DMSO. Final substrate concentrations in the assay were 170 μM ATP (Sigma Chemicals) and 200 μM peptide (RPRAATF, American Peptide, Sunnyvale, Calif.). Assays were carried out at 30° C. and 45 nM AKT. Final concentrations of the components of the coupled enzyme system were 2.5 mM phosphoenolpyruvate, 300 μM NADH, 30 μg/ML pyruvate kinase and 10 μg/ml lactate dehydrogenase.
An assay stock buffer solution was prepared containing all of the reagents listed above, with the exception of AKT, DTT, and the test compound of interest. 55 μl of the stock solution was placed in a 96 well plate followed by addition of 2 μl of 1 mM DMSO stock containing the test compound (final compound concentration 30 μM). The plate was pre-incubated for about 10 minutes at 30° C. and the reaction initiated by addition of 10 μl of enzyme (final concentration 45 nM) and 1 mM DTF. Rates of reaction were obtained using a Molecular Devices SpectraMax Plus plate reader over a 15 minute read time at 30° C.

SMILES	Ki (PDK-1)	Ki (PKA)	Ki (AKT-3)
NCCC(C(=O)Nc1ccc2[nH]nc(NC(=O)c3ccc(CN)cc3)c2c1)c1ccc(Cl)c(Cl)c1 (stereo not shown) [Compound I-198]	< 1000 nM	< 1000 nM	< 1000 nM
COc1cccc(C(=O)Nc2n[nH]c3ccc(NC(=O)C(CCN)c4ccc(Cl)c(Cl)c4)cc23)c1 (stereo not shown) [Compound I-167]	< 1000 nM	< 1000 nM	< 1000 nM
NCCC(C(=O)Nc1ccc2[nH]nc(NC(=O)c3cccs3)c2c1)c1ccccc1 (stereo not shown) [Compound I-1043]	< 1000 nM	< 1000 nM	< 1000 nM
NCC(C(=O)Nc1ccc2[nH]nc(-c3ccccc3)c2c1)c1ccc(Cl)c(Cl)c1 (stereo not shown) [Compound I-231]	< 1000 nM	< 1000 nM	< 1000 nM
NCCC(C(=O)Nc1ccc2[nH]nc(-c3ccc(F)cc3)c2c1)c1ccc(Cl)c(Cl)c1 (stereo not shown) [Compound I-234]	< 1000 nM	< 1000 nM	< 1000 nM
Cc1n[nH]c2ccc(NC(=O)C(CCN)c3ccc(Cl)s3)cc12 (stereo not shown) [Compound I-139]	< 1000 nM	< 1000 nM	< 1000 nM
NCCC(C(=O)Nc1ccc2[nH]nc(NC(=O)c3ccc(Cl)c(Cl)c3)c2c1)c1ccc(Cl)c(Cl)c1 (stereo not shown) [Compound I-183]	> 3000 nM	< 1000 nM	< 1000 nM
NCCC(C(=O)Nc1ccc2[nH]nc(NC(=O)c3cccnc3)c2c1)c1ccc(Cl)c(Cl)c1 (stereo not shown) [Compound I-194]	< 1000 nM	< 1000 nM	< 1000 nM
NCCC(C(=O)Nc1ccc2[nH]nc(NC(=O)c3cccc(F)c3)c2c1)c1ccc(Cl)c(Cl)c1 (stereo not shown) [Compound I-179]	< 1000 nM	< 1000 nM	< 1000 nM
O=C(Nc1ccc2[nH]ncc2c1)C1(c2ccccc2)CCNCC1 [Compound I-156]	> 3000 nM	< 1000 nM	1000 to 10000 nM
NCCC(C(=O)Nc1ccc2[nH]nc(NC(=O)c3ccccc3)c2c1)c1ccc(Cl)c(Cl)c1 (stereo not shown) [Compound I-141]	< 1000 nM	< 1000 nM	< 1000 nM
Cc1n[nH]c2ccc(NC(=O)C(CCN)c3cccc(Cl)c3Cl)cc12 (stereo not shown) [Compound I-120]	< 1000 nM	< 1000 nM	< 1000 nM
NCCC(C(=O)Nc1ccc2[nH]ncc2c1)c1cccc(OCc2ccccc2)c1 (stereo not shown) [Compound I-1006]	< 1000 nM	< 1000 nM	< 1000 nM
CCc1cccc(C(CCN)C(=O)Nc2ccc3[nH]nc(C)c3c2)c1 (stereo not shown) [Compound I-135]	> 3000 nM	< 1000 nM	< 1000 nM
NCCNC(C(=O)Nc1ccc2[nH]ncc2c1)c1cccc(Cl)c1 (stereo not shown) [Compound I-59, 2-(2-Amino-ethylamino)-2-(3-chloro-phenyl)-N-(1H-indazol-5-yl)-acetamide]		< 1000 nM	< 1000 nM
NCCC(C(=O)Nc1ccc2[nH]nc(-c3cccc(CN)c3)c2c1)c1ccccc1 (stereo not shown) [Compound I-260]	< 1000 nM	< 1000 nM	
NCCC(C(=O)Nc1ccc2[nH]nc(NC(=O)c3cccc([N+](=O)[O-])c3)c2c1)c1ccc(Cl)c(Cl)c1 (stereo not shown) [Compound I-208]		< 1000 nM	< 1000 nM
Cc1n[nH]c2ccc(NC(=O)[C@H](CCN)c3ccccc3)cc12 [Compound I-1034]	< 1000 nM	< 1000 nM	
NC(C(=O)Nc1ccc2[nH]ncc2c1)c1ccc(F)c(Cl)c1 (stereo not shown) [Compound I-55]		< 1000 nM	1000 to 10000 nM
NC(C(=O)Nc1ccc2[nH]ncc2c1)c1cccc(Cl)c1 (stereo not shown) [Compound I-51]		< 1000 nM	1000 to 10000 nM
Cc1n[nH]c2ccc(NC(=O)[C@@H](CCN)c3ccccc3)cc12 [Compound I-1033]	> 3000 nM	< 1000 nM	
NCCC(C(=O)Nc1ccc2[nH]nc(-c3ccc(C(=O)O)cc3)c2c1)c1ccccc1 (stereo not shown) [Compound I-237]	< 1000 nM	< 1000 nM	
Cc1n[nH]c2ccc(NC(=O)[C@H](O)c3cccc(Cl)c3)cc12 [Compound I-76]		< 1000 nM	1000 to 10000 nM

SMILES	Ki (PDK-1)	Ki (PKA)	Ki (AKT-3)
O=C(Cc1cccc(C(F)(F)F)c1)Nc1ccc2[nH]ncc2c1 [Compound I-2]		< 1000 nM	10000 to 20000 nM
CCNc1cccc(C(=O)Nc2n[nH]c3ccc(NC(=O)C(CCN)c4ccc(Cl)c(Cl)c4)cc23)c1 (stereo not shown) [Compound I-210]		< 1000 nM	< 1000 nM
Cc1ccc(-c2n[nH]c3ccc(NC(=O)C(CCN)c4ccccc4)cc23)cc1 (stereo not shown) [Compound I-249]	< 1000 nM	< 1000 nM	
Cc1n[nH]c2ccc(NC(=O)C(CCN)c3cccc(Cl)c3F)cc12 (stereo not shown) [Compound I-116]		< 1000 nM	< 1000 nM
NCC[C@H](C(=O)Nc1ccc2[nH]nc(-c3ccc(C(=O)O)cc3)c2c1)c1ccccc1 [Compound I-263]	< 1000 nM	< 1000 nM	
NCCC(C(=O)Nc1ccc2[nH]nc(-c3cccc(C(F)(F)F)c3)c2c1)c1ccccc1 (stereo not shown) [Compound I-230]	< 1000 nM	< 1000 nM	
O=C(Nc1ccc2[nH]ncc2c1)C(O)c1ccc(Cl)cc1 (stereo not shown) [Compound I-35]		< 1000 nM	1000 to 10000 nM
O=C(Nc1ccc2[nH]ncc2c1)[C@H](O)c1cccc(Cl)c1 [Compound I-40]		< 1000 nM	1000 to 10000 nM
NCCC(C(=O)Nc1cc(Cl)c2[nH]ncc2c1)c1ccc(Cl)c(Cl)c1 (stereo not shown) [Compound I-143]		< 1000 nM	< 1000 nM
NCC(C(=O)Nc1ccc2[nH]ncc2c1)c1cccc(Cl)c1 (stereo not shown) [Compound I-97]		< 1000 nM	< 1000 nM
NCCC(C(=O)Nc1ccc2[nH]nc(-c3ccc(-c4nn[nH]n4)cc3)c2c1)c1ccccc1 (stereo not shown) [Compound I-261]	< 1000 nM	< 1000 nM	
NCCC(C(=O)Nc1ccc2[nH]ncc2c1)c1ccc(F)c(C(F)(F)F)c1 (stereo not shown) [Compound I-103]		< 1000 nM	< 1000 nM
NC(C(=O)Nc1ccc2[nH]ncc2c1)c1cccc(Br)c1 (stereo not shown) [Compound I-52]		< 1000 nM	10000 to 20000 nM
N[C@@H](C(=O)Nc1ccc2[nH]ncc2c1)c1ccccc1 [Compound I-48]		< 1000 nM	1000 to 10000 nM
CNCCCNC(C(=O)Nc1ccc2[nH]ncc2c1)c1cccc(Cl)c1 (stereo not shown) [Compound I-67]		< 1000 nM	< 1000 nM
NCCC(C(=O)Nc1cc(Br)c2[nH]ncc2c1)c1ccc(Cl)c(Cl)c1 (stereo not shown) [Compound I-144]		< 1000 nM	< 1000 nM
O=C(Nc1ccc2[nH]ncc2c1)C(O)c1cc(F)cc(F)c1 (stereo not shown) [Compound I-43]		< 1000 nM	1000 to 10000 nM
Cc1n[nH]c2ccc(NC(=O)[C@H](O)c3ccc(F)c(Cl)c3)cc12 [Compound I-77]		< 1000 nM	1000 to 10000 nM
Cc1n[nH]c2ccc(NC(=O)C(CCN)c3ccccc3F)cc12 (stereo not shown) [Compound I-1026]	< 1000 nM	< 1000 nM	
O=C(Nc1ccc2[nH]nc(Cl)c2c1)[C@H](O)c1cccc(Cl)c1 [Compound I-78]		< 1000 nM	1000 to 10000 nM
C#Cc1cccc(C(=O)Nc2n[nH]c3ccc(NC(=O)C(CCN)c4ccc(Cl)c(Cl)c4)cc23)c1 (stereo not shown) [Compound I-205]		< 1000 nM	< 1000 nM
NCCC(C(=O)Nc1ccc2[nH]nc(-c3cccc(F)c3)c2c1)c1ccccc1 (stereo not shown) [Compound I-240]	< 1000 nM	< 1000 nM	
NCCC(C(=O)Nc1ccc2[nH]nc(-c3cccc(F)c3)c2c1)c1ccc(Cl)c(Cl)c1 (stereo not shown) [Compound I-252]		< 1000 nM	< 1000 nM
